Test results reported in the Kinase Knowledgebase extract (Sharma et al. 2016).

How the values were obtained:
CDK2 (human) [1] = biological target: CDK2 (human) (UniProt P24941); experiment: Enzyme Assay
CDK2 (human) [2] = biological target: CDK2 (human) (UniProt P24941); experiment: Enzyme Assay; remark: listed apart in the source

Row | Structure (SMILES) | IC50 (CDK2 (human) [1]) | IC50 (CDK2 (human) [2])
1 | Nc1nc(Nc2ccc(N3CCC(N4CCCC4)CC3)cc2)sc1C(=O)c1ccc2c(c1)OCCO2 |  | 3490 nM
2 | Cc1cccc(C(=O)c2sc(Nc3ccc(N4CCC(N(C)C)CC4)cc3)nc2N)c1 | 3520 nM | 
3 | COc1cccc(C(=O)c2sc(Nc3ccc(N4CCC(N5CCCC(O)C5)CC4)cc3)nc2N)c1 (configuration not stated) |  | 970 nM

Further lines, results first:

Row | IC50 (CDK2 (human) [1]) | IC50 (CDK2 (human) [2]) | Structure (SMILES)
4 | 2620 nM |  | Cc1cccc(C(=O)c2sc(Nc3ccc(N4CCC(N5CCCC5)CC4)cc3)nc2N)c1
5 |  | 989 nM | CCc1cccc(C(=O)c2sc(Nc3ccc(N4CCC(N5CCNCC5)CC4)cc3)nc2N)c1
6 | 2920 nM | 2920 nM | Cc1cccc(C(=O)c2sc(Nc3ccc(N4CCC(N5CCCCC5)CC4)cc3)nc2N)c1
